From US12577226B2, “Compounds for treating Huntington's disease” (PTC THERAPEUTICS, INC., priority 2019, dated 2026) come the findings set out here.

Bounds are passed on as bounds.

This assay concerns Endogenous Huntingtin Protein (capture with MW1 (expanded polyglutamine) or MAB2166 antibody). Briefly: Endogenous Huntingtin Protein Assay (ELISA-based Meso Scale Discovery electrochemiluminescence assay). The format is cell-based. The settings on record: MSD electrochemiluminescence platform. On the procedure: Compounds of Formula (I), Formula (II), or Formula (III) were tested using the Meso Scale Discovery (MSD) Assay provided in International Application No. PCT/US2016/066042, filed on Dec. 11, 2016 and claiming priority to U.S. Provisional Application U.S. 62/265,652 filed on Dec. 10, 2015, the entire contents of which are incorporated herein by reference.
The Endogenous Huntingtin Protein assay used in Example 1 was developed using the ELISA-based MSD electrochemiluminescence assay platform.
Meso Scale Discovery (MSD) 96-well or 384-well plates were coated overnight at 4° C. with MW1 (expanded polyglutamine) or MAB2166 monoclonal antibody (for capture) at a concentration of 1 μg/mL in PBS (30 μL per well). Plates were then washed three times with 300 μL wash buffer (0.05% Tween-20 in PBS) and blocked (100 μL blocking buffer; 5% BSA in PBS) for 4-5 hours at room temperature with rotational shaking and then washed three times with wash buffer.
Samples (25 μL) were transferred to the antibody-coated MSD plate and incubated overnight at 4° C. After removal of the lysates, the plate was washed three times with wash buffer, and 25 μL of #5656S (Cell signaling; rabbit monoclonal) secondary antibody (diluted to 0.25 μg/mL in 0.05% Tween-20 in blocking buffer) was added to each well and incubated with shaking for 1 Hour at room temperature. Following incubation with the secondary antibody, the wells were rinsed with wash buffer after which 25 μL of goat anti-rabbit SULFO TAG secondary detection antibody (required aspect of the MSD system) (diluted to 0.25 μg/mL in 0.05% Tween-20 in blocking buffer) was added to each well and incubated with shaking for 1 hour at room temperature. After rinsing three times with wash buffer, 150 μL of read buffer T with surfactant (MSD) were added to each empty well, and the plate was imaged on a SI 6000 imager (MSD) according to manufacturers' instructions provided for 96- or 384-well plates.
(In general: In an ELISA, binding on a coated surface is turned into a signal by an enzyme label.)
For orientation: IC50 means the point on the concentration scale where inhibition reaches its midpoint. High values mean lower potency, low ones higher potency. `CC1(C)C[C@H](Oc2ccc(-c3ncc(-n4nccn4)cc3O)nn2)[C@H](F)C(C)(C)N1` (single isomer, unassigned) [Compound 11, 2-(6-{[(3R,4S)-3-fluoro-2,2,6,6-tetramethylpiperidin-4-yl]oxy}pyridazin-3-yl)-5-(2H-1,2,3-triazol-2-yl)pyridin-3-ol or 2-(6-{[(3S,4R)-3-fluoro-2,2,6,6-tetramethylpiperidin-4-yl]oxy}pyridazin-3-yl)-5-(2H-1,2,3-triazol-2-yl)pyridin-3-ol] yielded a half-maximal inhibitory concentration (IC50) not above 100 nM.

Take `CC1(C)C[C@H](Oc2ccc(-c3ncc(-c4ncco4)cc3O)nn2)[C@H](F)C(C)(C)N1` (single isomer, unassigned) [Compound 12, 2-(6-{[(3R,4S)-3-fluoro-2,2,6,6-tetramethylpiperidin-4-yl]oxy}pyridazin-3-yl)-5-(1,3-oxazol-2-yl)pyridin-3-ol or 2-(6-{[(3S,4R)-3-fluoro-2,2,6,6-tetramethylpiperidin-4-yl]oxy}pyridazin-3-yl)-5-(1,3-oxazol-2-yl)pyridin-3-ol]: the IC50 is not above 100 nM.

Regarding `CC1(C)C[C@H](Oc2ccc(-c3ncc(-c4cn[nH]c4F)cc3O)nn2)[C@H](F)C(C)(C)N1` (single isomer, unassigned) [Compound 22, 5-(5-fluoro-1H-pyrazol-4-yl)-2-(6-{[(3R,4S)-3-fluoro-2,2,6,6-tetramethylpiperidin-4-yl]oxy}pyridazin-3-yl)pyridin-3-ol or 5-(5-fluoro-1H-pyrazol-4-yl)-2-(6-{[(3S,4R)-3-fluoro-2,2,6,6-tetramethylpiperidin-4-yl]oxy}pyridazin-3-yl)pyridin-3-ol], the half-inhibitory concentration (IC50) is 100 to 500 nM.

For `Cn1cc2cc(-c3cnc(-c4ccc(O[C@H]5CC(C)(C)NC(C)(C)[C@H]5F)nn4)c(O)c3)cc(C#N)c2n1` (single isomer, unassigned) [Compound 34, 5-[6-(6-{[(3R,4S)-3-fluoro-2,2,6,6-tetramethylpiperidin-4-yl]oxy}pyridazin-3-yl)-5-hydroxypyridin-3-yl]-2-methyl-2H-indazole-7-carbonitrile or 5-[6-(6-{[(3S,4R)-3-fluoro-2,2,6,6-tetramethylpiperidin-4-yl]oxy}pyridazin-3-yl)-5-hydroxypyridin-3-yl]-2-methyl-2H-indazole-7-carbonitrile], the half-inhibitory concentration (IC50) is not above 100 nM.

For the molecule `Cn1cc2cc(-c3cnc(-c4ccc(O[C@H]5CC(C)(C)NC(C)(C)[C@H]5F)nn4)c(O)c3)cc(F)c2n1` (single isomer, unassigned) [Compound 35, 5-(7-fluoro-2-methyl-2H-indazol-5-yl)-2-(6-{[(3R,4S)-3-fluoro-2,2,6,6-tetramethylpiperidin-4-yl]oxy}pyridazin-3-yl)pyridin-3-ol or 5-(7-fluoro-2-methyl-2H-indazol-5-yl)-2-(6-{[(3S,4R)-3-fluoro-2,2,6,6-tetramethylpiperidin-4-yl]oxy}pyridazin-3-yl)pyridin-3-ol], the IC50 is not above 100 nM.

For `Cn1ccc(-c2cnc(-c3ccc(O[C@H]4CC(C)(C)NC(C)(C)[C@H]4F)nn3)c(O)c2)cc1=O` (single isomer, unassigned) [Compound 37, 6-(6-{[(3R,4S)-3-fluoro-2,2,6,6-tetramethylpiperidin-4-yl]oxy}pyridazin-3-yl)-5-hydroxy-1′-methyl[3,4′-bipyridin]-2′(1′H)-one or 6-(6-{[(3S,4R)-3-fluoro-2,2,6,6-tetramethylpiperidin-4-yl]oxy}pyridazin-3-yl)-5-hydroxy-1′-methyl[3,4′-bipyridin]-2′(1′H)-one], the IC50 lay within 100 to 500 nM.

In turn, `CC1(C)C[C@@H](Oc2ccc(-c3ncc(-c4cn[nH]c4)cc3O)nn2)[C@@H](F)C(C)(C)N1` (single isomer, unassigned) [Compound 39, 2-(6-{[(3S,4R)-3-fluoro-2,2,6,6-tetramethylpiperidin-4-yl]oxy}pyridazin-3-yl)-5-(1H-pyrazol-4-yl)pyridin-3-ol or 2-(6-{[(3S,4R)-3-fluoro-2,2,6,6-tetramethylpiperidin-4-yl]oxy}pyridazin-3-yl)-5-(1H-pyrazol-4-yl)pyridin-3-ol] showed an IC50 not above 100 nM.

The molecule `CC1(C)C[C@H](Oc2ccc(-c3ncc(-c4cn[nH]c4)cc3O)nn2)[C@H](F)C(C)(C)N1` (single isomer, unassigned) [Compound 51, 2-(6-{[(3R,4S)-3-fluoro-2,2,6,6-tetramethylpiperidin-4-yl]oxy}pyridazin-3-yl)-5-(1H-pyrazol-4-yl)pyridin-3-ol or 2-(6-{[(3S,4R)-3-fluoro-2,2,6,6-tetramethylpiperidin-4-yl]oxy}pyridazin-3-yl)-5-(1H-pyrazol-4-yl)pyridin-3-ol] showed a 50% inhibitory concentration (IC50) not above 100 nM.

Molecule `CC1(C)CC(Oc2ccc(-c3ncc(-c4cn[nH]c4)cc3O)nn2)CC(C)(C)N1` [Compound 1, 5-(1H-pyrazol-4-yl)-2-{6-[(2,2,6,6-tetramethylpiperidin-4-yl)oxy]pyridazin-3-yl}pyridin-3-ol] displayed an IC50 not above 100 nM.

In turn, `CN(c1ccc(-c2ncc(-c3cn[nH]c3)cc2O)nn1)C1CC(C)(C)NC(C)(C)C1` [Compound 2, 2-{6-[methyl(2,2,6,6-tetramethylpiperidin-4-yl)amino]pyridazin-3-yl}-5-(1H-pyrazol-4-yl)pyridin-3-ol] returned a half-inhibitory concentration (IC50) not above 100 nM.

`[2H]C([2H])([2H])n1cc(-c2cnc(-c3ccc(OC4CC(C)(C)NC(C)(C)C4)nn3)c(O)c2)cn1` [Compound 3, 5-[1-(^2H3)methyl-1H-pyrazol-4-yl]-2-{6-[(2,2,6,6-tetramethylpiperidin-4-yl)oxy]pyridazin-3-yl}pyridin-3-ol]: the IC50 is not above 100 nM.

As for `Cn1ccc(-c2cnc(-c3ccc(OC4CC(C)(C)NC(C)(C)C4)nn3)c(O)c2)n1` [Compound 4, 5-(1-methyl-1H-pyrazol-3-yl)-2-{6-[(2,2,6,6-tetramethylpiperidin-4-yl)oxy]pyridazin-3-yl}pyridin-3-ol], the IC50 is not above 100 nM.

Take `CC1(C)CC(Oc2ccc(-c3ncc(-n4ccnc4)cc3O)nn2)CC(C)(C)N1` [Compound 5, 5-(1H-imidazol-1-yl)-2-{6-[(2,2,6,6-tetramethylpiperidin-4-yl)oxy]pyridazin-3-yl}pyridin-3-ol]: the IC50 is not above 100 nM.

`CC1(C)C[C@H](Nc2ccc(-c3ncc(-c4cn[nH]c4)cc3O)nn2)[C@@H](F)C(C)(C)N1` [Compound 8, 2-(6-{[(3R,4S)-3-fluoro-2,2,6,6-tetramethylpiperidin-4-yl]amino}pyridazin-3-yl)-5-(1H-pyrazol-4-yl)pyridin-3-ol] returned an IC50 not above 100 nM.

With `CC1(C)CC(Oc2ccc(-c3ncc(-c4ncco4)cc3O)nn2)CC(C)(C)N1` [Compound 10, 5-(1,3-oxazol-2-yl)-2-{6-[(2,2,6,6-tetramethylpiperidin-4-yl)oxy]pyridazin-3-yl}pyridin-3-ol], the IC50 was not above 100 nM.

In turn, `CN(c1ccc(-c2ncc(-c3ccn(C)n3)cc2O)nn1)C1CC(C)(C)NC(C)(C)C1` [Compound 13, 5-(1-methyl-1H-pyrazol-3-yl)-2-{6-[methyl(2,2,6,6-tetramethylpiperidin-4-yl)amino]pyridazin-3-yl}pyridin-3-ol] came in with an IC50 not above 100 nM.

`CN(c1ccc(-c2ncc(-c3ncco3)cc2O)nn1)C1CC(C)(C)NC(C)(C)C1` [Compound 14, 2-{6-[methyl(2,2,6,6-tetramethylpiperidin-4-yl)amino]pyridazin-3-yl}-5-(1,3-oxazol-2-yl)pyridin-3-ol] had an IC50 not above 100 nM.

`CN(c1ccc(-c2ncc(-n3ccnc3)cc2O)nn1)C1CC(C)(C)NC(C)(C)C1` [Compound 15, 5-(1H-imidazol-1-yl)-2-{6-[methyl(2,2,6,6-tetramethylpiperidin-4-yl)amino]pyridazin-3-yl}pyridin-3-ol] registered a half-maximal inhibitory concentration (IC50) not above 100 nM.

As for `CC1(C)CC(Oc2ccc(-c3ncc(-n4nccn4)cc3O)nn2)CC(C)(C)N1` [Compound 20, 2-{6-[(2,2,6,6-tetramethylpiperidin-4-yl)oxy]pyridazin-3-yl}-5-(2H-1,2,3-triazol-2-yl)pyridin-3-ol], the IC50 is not above 100 nM.

As for `CC1(C)CC(Oc2ccc(-c3ncc(-n4nccn4)cc3O)nn2)CC2(CC2)N1` (stereo not shown) [Compound 21, 2-{6-[(5,5-dimethyl-4-azaspiro[2.5]octan-7-yl)oxy]pyridazin-3-yl}-5-(2H-1,2,3-triazol-2-yl)pyridin-3-ol], the IC50 was not above 100 nM.

Turning to `[2H]C([2H])([2H])n1cc(-c2cnc(-c3ccc(N4CC[C@@H](NC(C)(C)C)C4)nn3)c(O)c2)cn1` [Compound 23, 2-{6-[(3R)-3-(tert-butylamino)pyrrolidin-1-yl]pyridazin-3-yl}-5-[1-(^2H3)methyl-1H-pyrazol-4-yl]pyridin-3-ol], the IC50 was not above 100 nM.

As to `CC(C)(C)N[C@@H]1CCN(c2ccc(-c3ncc(-n4nccn4)cc3O)nn2)C1` [Compound 24, 2-{6-[(3R)-3-(tert-butylamino)pyrrolidin-1-yl]pyridazin-3-yl}-5-(2H-1,2,3-triazol-2-yl)pyridin-3-ol], the IC50 was not above 100 nM.
